Assay results as given in patent US9056832B2, “Pyridine compounds and the users thereof” (Purdue Pharma L.P., priority 2010, dated 2015).

target: human Nav1.7 (Homo sapiens (Human), UniProt Q15858); assay: FLIPR or FLIPR TETRA sodium dye assay with KCl and test article pre-incubation; assay type: cell-based; conditions: read-out: Nav1.7 IC50 (μM) ± SEM
Sequence (Q15858 other isoform, or with tags, fused parts or gaps): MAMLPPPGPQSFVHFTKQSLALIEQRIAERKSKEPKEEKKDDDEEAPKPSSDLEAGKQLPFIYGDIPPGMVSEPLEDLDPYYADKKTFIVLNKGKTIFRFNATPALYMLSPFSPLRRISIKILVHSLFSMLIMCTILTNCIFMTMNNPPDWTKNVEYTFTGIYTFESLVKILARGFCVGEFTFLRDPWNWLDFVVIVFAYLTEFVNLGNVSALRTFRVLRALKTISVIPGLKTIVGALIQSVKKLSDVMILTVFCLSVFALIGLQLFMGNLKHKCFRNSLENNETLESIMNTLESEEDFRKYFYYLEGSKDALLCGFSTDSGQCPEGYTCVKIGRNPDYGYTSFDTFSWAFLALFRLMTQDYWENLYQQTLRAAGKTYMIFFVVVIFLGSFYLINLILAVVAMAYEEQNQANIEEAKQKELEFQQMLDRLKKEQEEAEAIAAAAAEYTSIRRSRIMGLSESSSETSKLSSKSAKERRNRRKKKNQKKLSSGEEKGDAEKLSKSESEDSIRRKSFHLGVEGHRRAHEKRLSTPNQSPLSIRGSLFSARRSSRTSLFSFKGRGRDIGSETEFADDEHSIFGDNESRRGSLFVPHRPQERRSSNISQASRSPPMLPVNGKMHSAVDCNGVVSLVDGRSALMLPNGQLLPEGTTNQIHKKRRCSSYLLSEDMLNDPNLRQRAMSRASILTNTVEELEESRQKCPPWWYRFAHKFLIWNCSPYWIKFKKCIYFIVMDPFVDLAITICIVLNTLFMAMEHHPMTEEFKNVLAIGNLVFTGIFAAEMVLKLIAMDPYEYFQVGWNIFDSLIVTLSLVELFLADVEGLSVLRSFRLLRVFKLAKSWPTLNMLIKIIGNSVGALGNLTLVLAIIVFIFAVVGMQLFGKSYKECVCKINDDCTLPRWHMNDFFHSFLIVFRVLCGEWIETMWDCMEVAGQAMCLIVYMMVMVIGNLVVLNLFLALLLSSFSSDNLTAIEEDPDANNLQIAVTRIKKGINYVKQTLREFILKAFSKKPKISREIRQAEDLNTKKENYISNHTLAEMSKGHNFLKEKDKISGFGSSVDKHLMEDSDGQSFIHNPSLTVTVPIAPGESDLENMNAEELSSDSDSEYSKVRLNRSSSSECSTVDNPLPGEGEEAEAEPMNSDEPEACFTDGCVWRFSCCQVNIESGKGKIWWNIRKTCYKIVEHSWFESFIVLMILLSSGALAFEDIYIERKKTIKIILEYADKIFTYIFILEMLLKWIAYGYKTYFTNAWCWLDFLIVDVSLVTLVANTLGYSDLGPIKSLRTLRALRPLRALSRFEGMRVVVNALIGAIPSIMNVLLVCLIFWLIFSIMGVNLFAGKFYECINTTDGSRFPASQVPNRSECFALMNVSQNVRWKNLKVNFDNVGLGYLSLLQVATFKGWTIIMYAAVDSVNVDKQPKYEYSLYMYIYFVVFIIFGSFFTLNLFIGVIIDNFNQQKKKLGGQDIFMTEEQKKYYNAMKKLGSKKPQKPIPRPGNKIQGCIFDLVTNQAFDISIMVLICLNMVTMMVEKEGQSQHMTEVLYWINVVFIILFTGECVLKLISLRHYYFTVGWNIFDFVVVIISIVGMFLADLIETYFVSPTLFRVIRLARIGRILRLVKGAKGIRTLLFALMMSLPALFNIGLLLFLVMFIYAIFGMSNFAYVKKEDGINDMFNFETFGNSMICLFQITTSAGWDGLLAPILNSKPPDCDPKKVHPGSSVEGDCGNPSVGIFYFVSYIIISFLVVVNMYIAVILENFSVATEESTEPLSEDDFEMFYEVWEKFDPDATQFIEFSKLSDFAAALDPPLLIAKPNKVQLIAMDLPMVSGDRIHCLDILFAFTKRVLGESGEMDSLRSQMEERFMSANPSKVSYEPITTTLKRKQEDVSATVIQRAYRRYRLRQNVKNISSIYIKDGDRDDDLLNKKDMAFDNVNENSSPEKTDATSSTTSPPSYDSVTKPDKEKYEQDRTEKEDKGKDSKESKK

SMILES	IC50 [µM]
N#Cc1ccc(Oc2ccc(-c3cc([C@@H](O)CO)cc(C(N)=O)n3)cc2)c(C(F)(F)F)c1 [compound 36, (R)-6-(4-(4-cyano-2-(trifluoromethyl)phenoxy)phenyl)-4-(1,2-dihydroxyethyl) picolinamide]	0.22 ± 0.04
NC(=O)c1cc(O)cc(-c2ccc(Oc3ccc(F)cc3)cc2)n1 [compound 136, 6-(4-(4-fluorophenoxy)phenyl)-4-hydroxy picolinamide]	> 20
N#Cc1ccc(Oc2ccc(-c3cccc(C(O)CO)n3)cc2)c(C(F)(F)F)c1 (centres unmarked) [compound 9, 4-(4-(6-(1,2-dihydroxyethyl)pyridin-2-yl)phenoxy)-3-(trifluoromethyl) benzonitrile]	0.5 ± 0.18
N#Cc1ccc(Oc2ccc(-c3cccc(C(O)CO)n3)cc2)cc1 (centres unmarked) [compound 8, 4-(4-(6-(1,2-dihydroxyethyl)pyridin-2-yl)phenoxy) benzonitrile]	0.47 ± 0.09
N#CCCN(c1ccccc1)c1cc(C(N)=O)nc(-c2ccc(Oc3ccc(F)cc3)cc2)c1 [compound 44, 4-((2-cyanoethyl)(phenyl)amino)-6-(4-(4-fluorophenoxy)phenyl) picolinamide]	3.29 ± 1.17
NC(=O)c1cc(NCCN2CCNC2=O)cc(-c2ccc(Oc3ccc(F)cc3)cc2)n1 [compound 58, 6-(4-(4-fluorophenoxy)phenyl)-4-((2-(2-oxoimidazolidin-1-yl)ethyl)amino) picolinamide]	1.57 ± 0.33
NC(=O)c1cc(NCC2CCNCC2)cc(-c2ccc(Oc3ccc(F)cc3)cc2)n1 [compound 57, 6-(4-(4-fluorophenoxy)phenyl)-4-((piperidin-4-ylmethyl)amino) picolinamide]	0.83 ± 0.02

same assay, conditions: recombinant human Nav1.7 in HEK293 cells; CoroNa Green sodium dye; veratridine + scorpion venom; read-out: Nav1.7 IC50 (μM) ± SEM

SMILES	IC50 [µM]
N#Cc1cc(CNCCN2CCNC2=O)cc(-c2ccc(Oc3ccc(F)cc3)cc2)n1 [compound 106, 6-(4-(4-fluorophenoxy)phenyl)-4-(((2-(2-oxoimidazolidin-1-yl)ethyl)amino)methyl) picolinonitrile]	2.01 ± 0.44
O=C(O)CN(c1ccccc1)c1cc(-c2ccc(Oc3ccc(F)cc3)cc2)cc(C(=O)O)n1 [compound 121, 6-((carboxymethyl) (phenyl)amino)-4-(4-(4-fluorophenoxy)phenyl)picolinic acid]	6.24 ± 0.81
OC[C@H](O)c1cc(N2CCNCC2)cc(-c2ccc(Oc3ccc(F)cc3)cc2)n1 [compound 21, (R)-1-(6-(4-(4-fluorophenoxy)phenyl)-4-(piperazin-1-yl)pyridin-2-yl)ethane-1,2-diol]	2.97 ± 0.91
CC(C)NC(=O)N1CCN(c2cc(-c3ccc(Oc4ccc(F)cc4)cc3)nc([C@@H](O)CO)c2)CC1 [compound 7, (R)-4-(2-(1,2-dihydroxyethyl)-6-(4-(4-fluorophenoxy)phenyl)pyridin-4-yl)-N-isopropyl piperazine-1-carboxamide]	0.32 ± 0.02
OCC(O)c1cccc(-c2ccc(Oc3ncc(C(F)(F)F)cc3Cl)cc2)n1 (centres unmarked) [compound 15, 1-(6-(4-((3-chloro-5-(trifluoromethyl)pyridin-2-yl)oxy)phenyl)pyridin-2-yl) ethane-1,2-diol]	1.42 ± 0.24
NC(=O)CN1CCN(c2cc(Cl)nc(-c3ccc(Oc4ccc(F)cc4)cc3)c2)CC1 [compound 109, 2-(4-(2-chloro-6-(4-(4-fluorophenoxy)phenyl)pyridine-4-yl)piperazin-1-yl) acetamide]	3.77 ± 0.56
NC(=O)c1cc([C@H](O)CO)cc(-c2ccc(Oc3cc(Cl)ccc3F)cc2)n1 [compound 39, (S)-6-(4-(5-chloro-2-fluorophenoxy)phenyl)-4-(1,2-dihydroxyethyl) picolinamide]	0.13 ± 0.03
NC(=O)c1cc([C@@H](O)CO)cc(-c2ccc(Oc3ccc(OC(F)(F)F)cc3)cc2)n1 [compound 161, 4-((R)-1,2-Dihydroxy-ethyl)-6-[4-(4-trifluoromethoxy-phenoxy)phenyl]-pyridine-2-carboxylic acid amide]	1.38 ± 0.2
CC(C)NC(=O)N1CCN(c2cc(C(N)=O)nc(-c3ccc(Oc4ccc(F)cc4)cc3)c2)CC1 [compound 73, 4-(2-carbamoyl-6-(4-(4-fluorophenoxy)phenyl)pyridin-4-yl)-N-isopropylpiperazine-1-carboxamide]	0.09 ± 0.03
N#Cc1cccc2c1ccn2-c1cc(C(=O)O)nc(-c2ccc(Oc3ccc(F)cc3)cc2)c1 [compound 101, 4-(4-cyano-1H-indol-1-yl)-6-(4-(4-fluorophenoxy)phenyl) picolinic acid]	0.27 ± 0.08
OCC(O)c1cccc(-c2ccc(Oc3ccc(C(F)(F)F)cn3)cc2)n1 (centres unmarked) [compound 16, 1-(6-(4-((5-(trifluoromethyl)pyridin-2-yl)oxy)phenyl)pyridin-2-yl) ethane-1,2-diol]	1.71 ± 0.24
N#CCN(CCN1CCNC1=O)Cc1cccc(-c2ccc(Oc3ccc(F)cc3)cc2)n1 [compound 69, 2-(((6-(4-(4-fluorophenoxy)phenyl)pyridin-2-yl)methyl) (2-(2-oxoimidazolidin-1-yl)ethyl)amino) acetonitrile]	0.19 ± 0.05
N#Cc1cccc2c1ccn2-c1cc(-c2ccc(Oc3ccc(F)cc3)cc2)cc(C(N)=O)n1 [compound 100, 6-(4-cyano-1H-indol-1-yl)-4-(4-(4-fluorophenoxy)phenyl) picolinamide]	0.27 ± 0.03
CC(=O)c1ccc(Oc2ccc(-c3cccc(C(O)CO)n3)cc2)c(C(F)(F)F)c1 (centres unmarked) [compound 20, 1-(4-(4-(6-(1,2-dihydroxyethyl)pyridin-2-yl)phenoxy)-3-(trifluoromethyl)phenyl)ethanone]	2.95 ± 0.76
NC(=O)CN(CCN1CCNC1=O)Cc1cccc(-c2ccc(Oc3ccc(F)cc3)cc2)n1 [compound 72, 2-(((6-(4-(4-fluorophenoxy)phenyl)pyridin-2-yl)methyl)(2-(2-oxoimidazolidin-1-yl)ethyl)amino) acetamide]	0.76 ± 0.03
OC[C@H](O)c1cccc(-c2ccc(Oc3ccc(C(F)(F)F)cn3)cc2)n1 [compound 23, (R)-1-(6-(4-((5-(trifluoromethyl)pyridin-2-yl)oxy)phenyl)pyridin-2-yl)ethane-1,2-diol]	4.89 ± 2.48
NC(=O)c1cc([C@H](O)CO)cc(-c2ccc(Oc3ccc(F)cc3)cc2)n1 [compound 41, (S)-4-(1,2-dihydroxyethyl)-6-(4-(4-fluorophenoxy)phenyl)picolinamide]	0.24 ± 0.04
N#Cc1cc(N2CCN(C(=N)N)CC2)cc(-c2ccc(Oc3ccc(F)cc3)cc2)n1 [compound 83, 4-(2-cyano-6-(4-(4-fluorophenoxy)phenyl)pyridin-4-yl) piperazine-1-carboximidamide]	1.95 ± 0.52
NC(=O)c1cc(CN2CCNCC2)cc(-c2ccc(Oc3ccc(F)cc3)cc2)n1 [compound 51, 6-(4-(4-fluorophenoxy)phenyl)-4-(piperazin-1-ylmethyl)picolinamide]	0.18 ± 0.3
NC(=O)c1cc(N2CCN(C3=NCCCN3)CC2)cc(-c2ccc(Oc3ccc(F)cc3)cc2)n1 [compound 77, 6-(4-(4-fluorophenoxy)phenyl)-4-(4-(1,4,5,6-tetrahydropyrimidin-2-yl)piperazin-1-yl)picolinamide]	4.27 ± 0.69
O=C1NCCN1CCNCc1cccc(-c2ccc(Oc3ccc(F)cc3)cc2)n1 [compound 62, 1-(2-(((6-(4-(4-fluorophenoxy)phenyl)pyridin-2-yl)methyl)amino)ethyl)imidazolidin-2-one]	0.07 ± 0.02
N#Cc1cccc2c1ccn2-c1cc(-c2ccc(Oc3ccc(F)cc3)cc2)cc(C(=O)O)n1 [compound 126, 6-(4-cyano-1H-indol-1-yl)-4-(4-(4-fluorophenoxy)phenyl) picolinic acid]	1.05 ± 0.13
